Test results: article PMC9106035, “Synthesis, X-ray Structure and Biological Studies of New Self-Assembled Cu(II) Complexes Derived from s-Triazine Schiff Base Ligand” (Molecules, 2022)

Columns and labels:
[1] = test system: A. fumigatus (RCMB 002008); assay: Agar well diffusion, inhibition zone; format: cell-based; details: 10 mg/mL of the tested compounds
Procedure: (§1) The antimicrobial activity of the free ligands and the corresponding Cu(II) complexes was determined against different categories of microbes (Table 5). All inhibition zones were determined at 10 mg/mL of the tested compounds. […] The largest inhibition zones were found for B. subtilis (25 mm), which is very close to the standard Gentamycin (26 mm). […] Complex 1 evidenced antimicrobial activity against all microbes except C. albicans.
(§2) Method S2: Antimi crobial studies a) Tested pathogenic microbes
(§3) The antibacterial a ctivity of the studied ligands and their Cu(II) complexes were evaluated against two Gram positive bacteria ((S. aureus (ATCC 25923) and B. subtilis (RCMB015(1)NRR LB-543)), two Gram negatvie bacteria ((E. coli (ATCC 25922) and P. vulgaris (RCMB 004(1)ATCC 13315)) and two fungi ((A. fumigatus […]
was used as standard antibacterial agent. The samples maintained in Brain heart infusion (BHI) at 20 °C; […] of each stock–c ulture was added to 3 mL of BHI […]
broth. […]
(§4) 0.5). In case of fungi A. fumigatus (RCMB 002008) and C. albicans (RCMB 005003(1) ATCC 10231), the used medium in antagonistic activity against tested fungi is Potato Dextrose Agar, where Fluconazole was used standard antifungal agent. b) Agar well diffusion method
(§5) Synthetic compounds were prepared at concentration 10 mg/mL dissolved in DMSO as stock solutions. Preparation of sterilized Mueller Hinton agar plates seeded with tested pathogenic b acteria occurred. The wells are done by sterilized cork borer in size […]
(§6) comparably with DMSO as control. The plates were incubated at 37°C for 24 h. after incubation period; antimicrobial activity was d etermined by inhibition zones. […]

[2] = test system: C. albicans (RCMB 005003(1) ATCC 10231); assay: Agar well diffusion, inhibition zone; format: cell-based; details: 10 mg/mL of the tested compounds
Procedure: as §1, §2
The antibacterial a ctivity of the studied ligands and their Cu(II) complexes were evaluated against two Gram positive bacteria ((S. aureus (ATCC 25923) and B. […]
as §4, §5, §6

[3] = test system: B. subtilis (RCMB015(1)NRR LB-543); assay: Agar well diffusion, inhibition zone; format: cell-based; details: 10 mg/mL of the tested compounds
Procedure: as §1, §2, §3
(§7) was used as standard antibacterial agent. The samples maintained in Brain heart infusion (BHI) at 20 °C; […] of each stock–c ulture was added to 3 mL of BHI broth. Overnight cultures were kept for 24 h at 37 °C ± 1 °C and the purity of cultures was checked aft er 24 h of incubation. […]
(§8) b) Agar well diffusion method
as §5, §6

E. coli (ATCC 25922) [4] = assay: Agar well diffusion, inhibition zone; format: cell-based; details: 10 mg/mL of the tested compounds
Procedure: as §1, §2, §3, §7, §8, §5, §6

[5] = test system: P. vulgaris (RCMB 004(1)ATCC 13315); assay: Agar well diffusion, inhibition zone; format: cell-based; details: 10 mg/mL of the tested compounds
Procedure: as §1, §2, §3, §7, §8, §5, §6

S. aureus (ATCC 25923) [6] = assay: Agar well diffusion, inhibition zone; format: cell-based; details: 10 mg/mL of the tested compounds
Procedure: as §1, §2, §3, §7, §8, §5, §6

[7] = test system: B. subtilis (RCMB015(1)NRR LB-543); assay: Minimum Inhibitory Concentration (MIC); format: cell-based
Procedure: as §2, §3, §7
(§9) c) Minimum Inhibitory Concentration (MIC)
(§10) Different dilutions of the compounds are inoculat ed with tested pathogenic microbes.
(§11) After incubation period of 96 well microplate, the results are meas ured using microplate reader. To determine at what level the MIC endpoint is established; subculture of test samples at different concentrati ons occurred in nutrient agar plates.

E. coli (ATCC 25922) [8] = assay: Minimum Inhibitory Concentration (MIC); format: cell-based
Procedure: as §2, §3, §7, §9, §10, §11

[9] = test system: P. vulgaris (RCMB 004(1)ATCC 13315); assay: Minimum Inhibitory Concentration (MIC); format: cell-based
Procedure: as §2, §3, §7, §9, §10, §11

S. aureus (ATCC 25923) [10] = assay: Minimum Inhibitory Concentration (MIC); format: cell-based
Procedure: as §2, §3, §7, §9, §10, §11

[11] = Cytotoxic activity on normal cells, MTT viability assay; format: cell-based, human; details: human, MRC-5 normal lung fibroblast cells; for viability at 24 h, 2.5 µM: sample conc. 2.5 µM; for viability at 24 h, 5 µM: sample conc. 5.0 µM; for viability at 24 h, 9.8 µM: sample conc. 9.8 µM; for viability at 24 h, 39.1 µM: sample conc. 39.1 µM; for CC50 at 24 h: MRC-5 cells, MTT
Procedure: In this regard, the selectivity index (SI) was calculated as the ratio of cytotoxic effect on the normal cell line to the cytotoxic effect on the cancer cell line.
Method S4 Evaluation of Cytotoxic activity
The cells were propagated in Dulbecco’s modified Eagle’s medium (DMEM) supplemented with 10% heat-inactivated fetal bovine serum, 1 % L-glutamine, HEPES buffer and 50µg/mL Gentamycin. All cells were maintained at 37 °C in a humidified atmosphere with 5% CO2 and were subcultured tw o times a week.
Cytotoxicity evaluation using viability assay
For cytotoxicity assay, the cells were seeded in 96-well plate at a cell concentration of 1×10^4 cells per well in 100µl of growth medium. Fresh medium containing different concentrations of the test sample was added after 24 h of seeding. Serial two-fold dilutions of the tested chemical compound were added to confluent cell monolayers dispensed into 96-well, flat-bottomed microtiter plates (Falcon, NJ, USA) using a multichannel pipette. The microtiter plates were incubated at 37 °C in a humidified incubator with 5% CO2 for a period of 24 h. Three wells were used for each concentration of the test sample. Control cells were incubated without test sample and with or without DMSO. The little percentage of DMSO present in the […]
cells for at 37°C, for 24 h, the viabl e cells yield was determined by the MTT test.
Briefly, the media was removed from the 96 well plate and replaced with 100 µL of fresh culture DMEM m edium without phenol red then 10 µL of the 12 mM MTT stock solution (5 mg of MTT in 1 mL of PBS) to each well including the untreated controls. The 96 well plates were then incubated at 37°C and 5% CO2 for 4 hours. An 85 µL aliquot of the media was removed from t he wells, and 50 µL of DMSO was added to each well and mixed thoroughly with the pipette and incubated at 37°C for 10 min. Then, the optical density was measured at 590 nm with the microplate reader (SunRise, TECAN, Inc, USA) to determine the number of viable cells and the percentage of viability was calculat ed as [(ODt/ODc)]x100% where ODt i s the mean optical density of wells treated with the tested s ample and ODc is the mean optical density of untreated cells. The relation between surviving cells and drug concentration is plotted to get the survival curve of each tumor cell line after treatment with the specified compound. The 50% inhibitory concentration (IC50), the concentration required to cause t oxic effects in 50% of intact cells, was estimated from graphic plots of the dose response curve for each conc. using Graphpad Prism software (San Diego, […]

Structure (SMILES)	Inhibition zone diameters [1]	Inhibition zone diameters [2]	Inhibition zone diameters [3] [mm]	Inhibition zone diameters (E. coli (ATCC 25922) [4]) [mm]	Inhibition zone diameters [5] [mm]	Inhibition zone diameters (S. aureus (ATCC 25923) [6]) [mm]	MIC [7] [µg/mL]	MIC (E. coli (ATCC 25922) [8]) [µg/mL]	MIC [9] [µg/mL]	MIC (S. aureus (ATCC 25923) [10]) [µg/mL]	CC50 at 24 h [11] [µM]	other results
CC(=NNc1nc(N2CCOCC2)nc(N2CCOCC2)n1)c1ccccc1[O-].CC(=O)[O-].[Cu+2] [Complex 2, [Cu(DMOT)(CH3COO)]]	15 mm	10 mm	25	14	15	11	39.06	1250	1250	1250	–	–
CC(=NNc1nc(N2CCOCC2)nc(N2CCOCC2)n1)c1ccccc1[O-].O=[N+]([O-])[O-].[Cu+2] [Complex 3, [Cu(DMOT)(NO3)]]	no antifungal activity	no antifungal activity	24	15	13	12	78.125	312.5	1250	1250	–	–
CC(=NNc1nc(N2CCOCC2)nc(N2CCOCC2)n1)c1ccccc1N [DMAT, 2-(1-(2-(4,6-dimorpholino-1,3,5-triazin-2-yl)hydrazono)ethyl)aniline]	–	–	–	–	–	–	–	–	–	–	716	viability at 24 h, 2.5 µM ([11]; MRC-5, Table S10): 100%; viability at 24 h, 5 µM ([11]; MRC-5, Table S10): 100%; viability at 24 h, 9.8 µM ([11]; MRC-5, Table S10): 100%; viability at 24 h, 19.6 µM ([11]; MRC-5, sample conc. 19.6 µM, Table S10): 100%; viability at 24 h, 39.1 µM ([11]; MRC-5, Table S10): 100%; viability at 24 h, 78.4 µM ([11]; MRC-5, sample conc. 78.4 µM, Table S10): 100%; viability at 24 h, 156.8 µM ([11]; MRC-5, sample conc. 156.8 µM, Table S10): 99.8%; viability at 24 h, 313.7 µM ([11]; MRC-5, sample conc. 313.7 µM, Table S10): 89.3%; viability at 24 h, 627.4 µM ([11]; MRC-5, sample conc. 627.4 µM, Table S10): 53.9%; viability at 24 h, 1254.8 µM ([11]; MRC-5, sample conc. 1254.8 µM, Table S10): 26.1%
CC(=NNc1nc(N2CCOCC2)nc(N2CCOCC2)n1)c1ccccc1O [DMOHT, 2-(1-(2-(4,6-dimorpholino-1,3,5-triazin-2-yl)hydrazono)ethyl)phenol]	–	–	–	–	–	–	–	–	–	–	1000	viability at 24 h, 2.5 µM ([11]; MRC-5, Table S12): 100%; viability at 24 h, 5 µM ([11]; MRC-5, Table S12): 100%; viability at 24 h, 9.8 µM ([11]; MRC-5, Table S12): 100%; viability at 24 h, 19.5 µM ([11]; MRC-5, sample conc. 19.5 µM, Table S12): 100%; viability at 24 h, 39.1 µM ([11]; MRC-5, Table S12): 100%; viability at 24 h, 78.2 µM ([11]; MRC-5, sample conc. 78.2 µM, Table S12): 100%; viability at 24 h, 156.5 µM ([11]; MRC-5, sample conc. 156.5 µM, Table S12): 97.9%; viability at 24 h, 312.9 µM ([11]; MRC-5, sample conc. 312.9 µM, Table S12): 89.6%; viability at 24 h, 625.8 µM ([11]; MRC-5, sample conc. 625.8 µM, Table S12): 67.6%; viability at 24 h, 1251.7 µM ([11]; MRC-5, sample conc. 1251.7 µM, Table S12): 38.2%
